These results are taken from PubChem BioAssay (NCI).

Structures are written as SMILES.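 Test compounds were applied to cells in 96-well plates for 48 hours at 5 doses. TGI marks complete inhibition of growth.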

One assay has as its system MOLT-4 leukemia. Description: inhibition of tumour cell growth, NCI panel, 48 h.
`C=C(C)C(=O)OC1C/C(CO)=C\C(O)C/C(C)=C/C2OC(=O)C(=C)C21` (centres undefined) gave a TGI of 56.2 µM.

The next assay has as its system HL-60(TB) leukemia. Kind of assay: inhibition of tumour cell growth, NCI panel, 48 h.
For `O=C(CC(=O)c1cccc2ccccc12)C(=O)Nc1ccc(Cl)cc1`, the TGI was > 100 µM.

Take `CCN(CC)CCSc1c2ccccc2nc2cc(NCC(=O)Nc3ccccc3-c3ccccc3NC(=O)CNc3ccc4c(SCCN(CC)CC)c5ccccc5nc4c3)ccc12`: the TGI was 49.3 µM.

As to `Cc1ccc(S(=O)(=O)OC[C@@H]2CO2)cc1`, the TGI was > 100 µM.

The test system of the next assay is LOX IMVI melanoma. Description: inhibition of tumour cell growth, NCI panel, 48 h.
As for `O=C(CC(=O)c1cccc2ccccc12)C(=O)Nc1ccc(Cl)cc1`, the TGI is > 100 µM.

As for `CCN(CC)CCSc1c2ccccc2nc2cc(NCC(=O)Nc3ccccc3-c3ccccc3NC(=O)CNc3ccc4c(SCCN(CC)CC)c5ccccc5nc4c3)ccc12`, the TGI was > 100 µM.

Turning to `Cc1ccc(S(=O)(=O)OC[C@@H]2CO2)cc1`, the TGI was > 100 µM.

`C=C(C)C(=O)OC1C/C(CO)=C\C(O)C/C(C)=C/C2OC(=O)C(=C)C21` (centres undefined) displayed a TGI of 35 µM.

For the next assay, the system named is SK-MEL-5 melanoma. Description: inhibition of tumour cell growth, NCI panel, 48 h.
Turning to `O=C(CC(=O)c1cccc2ccccc12)C(=O)Nc1ccc(Cl)cc1`, the TGI was > 100 µM.

In the case of `CCN(CC)CCSc1c2ccccc2nc2cc(NCC(=O)Nc3ccccc3-c3ccccc3NC(=O)CNc3ccc4c(SCCN(CC)CC)c5ccccc5nc4c3)ccc12`, the TGI was > 100 µM.

As to `Cc1ccc(S(=O)(=O)OC[C@@H]2CO2)cc1`, the TGI is > 100 µM.

Regarding `C=C(C)C(=O)OC1C/C(CO)=C\C(O)C/C(C)=C/C2OC(=O)C(=C)C21` (centres undefined), the TGI came out at 44.1 µM.

The next assay has as its system SF-295 CNS. Description: inhibition of tumour cell growth, NCI panel, 48 h.
With `O=C(CC(=O)c1cccc2ccccc12)C(=O)Nc1ccc(Cl)cc1`, the TGI is > 100 µM.

In the case of `CCN(CC)CCSc1c2ccccc2nc2cc(NCC(=O)Nc3ccccc3-c3ccccc3NC(=O)CNc3ccc4c(SCCN(CC)CC)c5ccccc5nc4c3)ccc12`, the TGI was > 100 µM.

Take `C=C(C)C(=O)OC1C/C(CO)=C\C(O)C/C(C)=C/C2OC(=O)C(=C)C21` (centres undefined): the TGI is > 100 µM.

In another assay the test system is DMS 273 small cell lung. Kind of assay: inhibition of tumour cell growth, NCI panel, 48 h.
As to `O=C(CC(=O)c1cccc2ccccc12)C(=O)Nc1ccc(Cl)cc1`, the TGI was > 100 µM.

On to `CCN(CC)CCSc1c2ccccc2nc2cc(NCC(=O)Nc3ccccc3-c3ccccc3NC(=O)CNc3ccc4c(SCCN(CC)CC)c5ccccc5nc4c3)ccc12`, for which the TGI was > 58.3 µM.

With `Cc1ccc(S(=O)(=O)OC[C@@H]2CO2)cc1`, the TGI was > 100 µM.

On to `C=C(C)C(=O)OC1C/C(CO)=C\C(O)C/C(C)=C/C2OC(=O)C(=C)C21` (centres undefined), for which the TGI was > 100 µM.

The subject of another assay is EKVX NSCLC. Description: inhibition of tumour cell growth, NCI panel, 48 h.
Regarding `O=C(CC(=O)c1cccc2ccccc12)C(=O)Nc1ccc(Cl)cc1`, the TGI is > 100 µM.

Regarding `CCN(CC)CCSc1c2ccccc2nc2cc(NCC(=O)Nc3ccccc3-c3ccccc3NC(=O)CNc3ccc4c(SCCN(CC)CC)c5ccccc5nc4c3)ccc12`, the TGI is > 100 µM.

Consider `Cc1ccc(S(=O)(=O)OC[C@@H]2CO2)cc1`, for which the TGI was > 100 µM.

Compound `C=C(C)C(=O)OC1C/C(CO)=C\C(O)C/C(C)=C/C2OC(=O)C(=C)C21` (centres undefined) displayed a TGI of 69.1 µM.

For a further assay, the system named is OVCAR-8 ovarian. Description: inhibition of tumour cell growth, NCI panel, 48 h.
`O=C(CC(=O)c1cccc2ccccc12)C(=O)Nc1ccc(Cl)cc1`: the TGI was > 100 µM.

In the case of `CCN(CC)CCSc1c2ccccc2nc2cc(NCC(=O)Nc3ccccc3-c3ccccc3NC(=O)CNc3ccc4c(SCCN(CC)CC)c5ccccc5nc4c3)ccc12`, the TGI is > 100 µM.

As to `Cc1ccc(S(=O)(=O)OC[C@@H]2CO2)cc1`, the TGI is > 100 µM.

`C=C(C)C(=O)OC1C/C(CO)=C\C(O)C/C(C)=C/C2OC(=O)C(=C)C21` (centres undefined) had a TGI of 49.5 µM.

The subject of another assay is NCI-H226 lung. Kind of assay: inhibition of tumour cell growth, NCI panel, 48 h.
Consider `O=C(CC(=O)c1cccc2ccccc12)C(=O)Nc1ccc(Cl)cc1`, for which the TGI is > 100 µM.

As for `CCN(CC)CCSc1c2ccccc2nc2cc(NCC(=O)Nc3ccccc3-c3ccccc3NC(=O)CNc3ccc4c(SCCN(CC)CC)c5ccccc5nc4c3)ccc12`, the TGI was > 100 µM.

In the case of `Cc1ccc(S(=O)(=O)OC[C@@H]2CO2)cc1`, the TGI is > 100 µM.

Compound `C=C(C)C(=O)OC1C/C(CO)=C\C(O)C/C(C)=C/C2OC(=O)C(=C)C21` (centres undefined) displayed a TGI of 79.5 µM.

The next assay concerns RPMI-8226 leukemia. Kind of assay: inhibition of tumour cell growth, NCI panel, 48 h.
Turning to `O=C(CC(=O)c1cccc2ccccc12)C(=O)Nc1ccc(Cl)cc1`, the TGI was > 100 µM.

As for `CCN(CC)CCSc1c2ccccc2nc2cc(NCC(=O)Nc3ccccc3-c3ccccc3NC(=O)CNc3ccc4c(SCCN(CC)CC)c5ccccc5nc4c3)ccc12`, the TGI was > 100 µM.

On to `C=C(C)C(=O)OC1C/C(CO)=C\C(O)C/C(C)=C/C2OC(=O)C(=C)C21` (centres undefined), for which the TGI was found to be 45.6 µM.

The subject of another assay is DMS 114 small cell lung. Kind of assay: inhibition of tumour cell growth, NCI panel, 48 h.
As to `O=C(CC(=O)c1cccc2ccccc12)C(=O)Nc1ccc(Cl)cc1`, the TGI was > 100 µM.

With `C=C(C)C(=O)OC1C/C(CO)=C\C(O)C/C(C)=C/C2OC(=O)C(=C)C21` (centres undefined), the TGI came to 60.8 µM.

Another assay deals with IGROV1 ovarian. Description: inhibition of tumour cell growth, NCI panel, 48 h.
For `O=C(CC(=O)c1cccc2ccccc12)C(=O)Nc1ccc(Cl)cc1`, the TGI is > 100 µM.

With `CCN(CC)CCSc1c2ccccc2nc2cc(NCC(=O)Nc3ccccc3-c3ccccc3NC(=O)CNc3ccc4c(SCCN(CC)CC)c5ccccc5nc4c3)ccc12`, the TGI was > 100 µM.

In the case of `Cc1ccc(S(=O)(=O)OC[C@@H]2CO2)cc1`, the TGI is > 100 µM.

Turning to `C=C(C)C(=O)OC1C/C(CO)=C\C(O)C/C(C)=C/C2OC(=O)C(=C)C21` (centres undefined), the TGI is > 100 µM.

The subject of the next assay is HCC-2998 colon. Description: inhibition of tumour cell growth, NCI panel, 48 h.
As for `O=C(CC(=O)c1cccc2ccccc12)C(=O)Nc1ccc(Cl)cc1`, the TGI is > 100 µM.

Regarding `CCN(CC)CCSc1c2ccccc2nc2cc(NCC(=O)Nc3ccccc3-c3ccccc3NC(=O)CNc3ccc4c(SCCN(CC)CC)c5ccccc5nc4c3)ccc12`, the TGI is > 100 µM.

Regarding `Cc1ccc(S(=O)(=O)OC[C@@H]2CO2)cc1`, the TGI is > 100 µM.

In a further assay the test system is SF-268 CNS. Description: inhibition of tumour cell growth, NCI panel, 48 h.
For `O=C(CC(=O)c1cccc2ccccc12)C(=O)Nc1ccc(Cl)cc1`, the TGI is > 100 µM.

Regarding `CCN(CC)CCSc1c2ccccc2nc2cc(NCC(=O)Nc3ccccc3-c3ccccc3NC(=O)CNc3ccc4c(SCCN(CC)CC)c5ccccc5nc4c3)ccc12`, the TGI is > 100 µM.

Compound `C=C(C)C(=O)OC1C/C(CO)=C\C(O)C/C(C)=C/C2OC(=O)C(=C)C21` (centres undefined) displayed a TGI of 57.8 µM.

The subject of a further assay is 786-0 renal. Description: inhibition of tumour cell growth, NCI panel, 48 h.
With `O=C(CC(=O)c1cccc2ccccc12)C(=O)Nc1ccc(Cl)cc1`, the TGI was > 100 µM.

As to `CCN(CC)CCSc1c2ccccc2nc2cc(NCC(=O)Nc3ccccc3-c3ccccc3NC(=O)CNc3ccc4c(SCCN(CC)CC)c5ccccc5nc4c3)ccc12`, the TGI was > 100 µM.

Take `Cc1ccc(S(=O)(=O)OC[C@@H]2CO2)cc1`: the TGI is > 100 µM.

For the compound `C=C(C)C(=O)OC1C/C(CO)=C\C(O)C/C(C)=C/C2OC(=O)C(=C)C21` (centres undefined), the TGI turned out to be 37.1 µM.

The test system of a further assay is KM12 colon. Description: inhibition of tumour cell growth, NCI panel, 48 h.
For `O=C(CC(=O)c1cccc2ccccc12)C(=O)Nc1ccc(Cl)cc1`, the TGI is > 100 µM.

`CCN(CC)CCSc1c2ccccc2nc2cc(NCC(=O)Nc3ccccc3-c3ccccc3NC(=O)CNc3ccc4c(SCCN(CC)CC)c5ccccc5nc4c3)ccc12`: the TGI is > 100 µM.

On to `Cc1ccc(S(=O)(=O)OC[C@@H]2CO2)cc1`, for which the TGI is > 100 µM.

With `C=C(C)C(=O)OC1C/C(CO)=C\C(O)C/C(C)=C/C2OC(=O)C(=C)C21` (centres undefined), the TGI worked out at 38.8 µM.
